This is an account of results in ChEMBL document CHEMBL1201862, “PubChem BioAssay data set” (2004).

The target of one experiment is Nonstructural protein 1 (Influenza A virus, UniProt Q194T2). The experiment is classed as functional, Influenza A virus (A/California/07/2009(H1N1)).
The target in experiment [1] is T1, DNA repair protein RAD52 homolog (Homo sapiens, UniProt P43351).
T1 sequence (P43351 whole entry): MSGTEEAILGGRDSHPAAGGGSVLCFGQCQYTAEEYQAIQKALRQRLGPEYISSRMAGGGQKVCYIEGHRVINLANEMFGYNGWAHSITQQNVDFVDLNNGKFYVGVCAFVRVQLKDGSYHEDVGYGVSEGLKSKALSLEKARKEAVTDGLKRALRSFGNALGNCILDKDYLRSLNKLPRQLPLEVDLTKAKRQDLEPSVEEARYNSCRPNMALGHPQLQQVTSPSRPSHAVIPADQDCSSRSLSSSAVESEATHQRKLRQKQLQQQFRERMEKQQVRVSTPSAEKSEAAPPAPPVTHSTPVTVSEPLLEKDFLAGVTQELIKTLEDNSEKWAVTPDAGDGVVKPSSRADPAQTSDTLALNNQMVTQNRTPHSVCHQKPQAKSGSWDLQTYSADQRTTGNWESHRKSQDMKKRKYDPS
The experiment is classed as functional, biochemical.

Experiment [2] in a line: inhibitors of HIV Env-driven cell fusion, dose response, cherry-pick (AID 652057). The experiment is classed as functional, cell-based.
Experiment [3] is described as follows: ZM109 Env clade C HIV-1 fusion inhibitors, dose response, HeLa effector, CEM target cells, luciferase, cherry-pick (AID 652058). The experiment is classed as functional, cell-based.
Experiment [4] is described as follows: off-target signal loss in HeLa-CEM21 co-culture – HeLa F-luc CTL cells, cherry-picked, counter-screen for HIV-1 Env fusion inhibitor project, dose response (AID 652040).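 Further: potency for signal decrease marking cytotoxic or nonspecific inhibition.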 The experiment is classed as functional, cell-based.
Experiment [5] in a line: inhibitors of clade B AD8 Env fusion, dose response, cell-based, cherry-pick (AID 652062).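 Further: luciferase signal from cell-cell fusion driven by HIV-1 clade B AD8 Env; potency is for inhibitors of fusion seen as a drop in luminescence.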 The experiment is classed as functional.
A further experiment relates to H4. The experiment is described as follows: Luminescence Cell-Based Dose Response HTS to Identify Activators of 5'UTR Stem-Loop Driven Prion Protein mRNA Translation in H4 Neuroglioblastoma Cells. [Related pubchem assays: 1829 (Project Summary), 1814 (Primary HTS)]. The note with it: Homo sapiens. The experiment is classed as functional.
Experiment [6] in a line: Luminescence Cell-Based Dose Response HTS to Identify Activators of Luciferase Translation or Activity in H4 […] Cells. [Related pubchem assays: 1829 (Project Summary), 1814 (Primary HTS)]. The experiment is classed as functional.
Experiment [7] in a line: Luminescence Cell-Based Dose Confirmation to Identify Activators of 5'UTR Stem-Loop Driven Alpha-Synuclein mRNA Translation in H4 Neuroglioblastoma Cells. [Related pubchem assays: 1829 (Project Summary), 1814 (Primary HTS)]. The experiment is classed as functional.
Experiment [8] is described as follows: Luminescence Cell-Based Dose Response to Identify Activators of 5'UTR Stem-Loop Driven Prion Protein mRNA Translation in H4-C Neuroglioblastoma Cells. [Related pubchem assays: 1829 (Project Summary), 1814 (Primary HTS)]. The experiment is classed as functional.
The nature of experiment [9]: Luminescence Cell-Based Dose Response to Identify Activators of Luciferase Translation or Activity in H4-C Neuroglioblastoma Cells. [Related pubchem assays: 1829 (Project Summary), 1814 (Primary HTS)]. The experiment is classed as functional.
The target of experiment [10] is Induced myeloid leukemia cell differentiation protein Mcl-1 (Homo sapiens, UniProt Q07820). The experiment is classed as functional.
A further experiment has as its target Large T antigen (Simian virus 40, UniProt P03070). The experiment is classed as functional, Betapolyomavirus macacae.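 Further: Confirmatory-stage PubChem screen for compounds that inhibit SV40 T antigen.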
Experiment [11] is described as follows: cytotoxicity toward NIH3T3 fibroblasts, dose response, counter-screen, cell-based, ATP luminescence, mouse fibroblasts (AID 2010).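 Further: cells exposed to compound for about 90 hours before reading.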 The experiment is classed as functional.
A short description of experiment [12]: inhibitors of intracellular T. cruzi replication, confirmation, NIH3T3 host cells, beta-gal luminescence (AID 2044).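 Further: intracellular parasites grown in NIH/3T3 mouse fibroblasts as host cells; luminescent beta-galactosidase reporter signal from transgenic T. cruzi replicating inside host cells; inhibitors lower the luminescence signal.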 The experiment is classed as functional, cell-based.
The target of experiment [13] is T2, High affinity choline transporter 1 (Homo sapiens, UniProt Q9GZV3).
T2 sequence (Q9GZV3 whole entry): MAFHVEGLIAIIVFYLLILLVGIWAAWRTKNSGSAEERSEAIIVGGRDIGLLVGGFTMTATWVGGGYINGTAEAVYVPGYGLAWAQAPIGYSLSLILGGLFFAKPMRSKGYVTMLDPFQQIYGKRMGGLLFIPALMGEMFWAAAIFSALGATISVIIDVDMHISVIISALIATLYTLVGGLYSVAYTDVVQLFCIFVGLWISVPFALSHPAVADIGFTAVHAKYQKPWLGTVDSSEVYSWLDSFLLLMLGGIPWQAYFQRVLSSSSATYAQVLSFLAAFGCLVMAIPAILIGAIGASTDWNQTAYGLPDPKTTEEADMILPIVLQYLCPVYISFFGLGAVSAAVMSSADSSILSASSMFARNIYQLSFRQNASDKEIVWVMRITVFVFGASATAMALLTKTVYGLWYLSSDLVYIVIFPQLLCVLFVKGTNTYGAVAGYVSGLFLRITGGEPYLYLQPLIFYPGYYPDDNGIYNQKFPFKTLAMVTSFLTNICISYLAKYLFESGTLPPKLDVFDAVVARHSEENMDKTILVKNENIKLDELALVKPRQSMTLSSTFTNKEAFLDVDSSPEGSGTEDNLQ
The experiment is described as follows: CHT inhibitors, dose response, cell-based, 5-point CRC, membrane potential dye (AID 504840). The experiment is classed as functional.

A short description of experiment [14]: growth suppression of PTEN-null colon cells, dose response, cell-based, HCT116 PTEN knockout (AID 1047).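 Further: HCT116 colon tumor cells with PTEN knocked out; cells exposed to compound for 60 hours before readout; potency for loss of cell viability measured by luminescence.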 The experiment is classed as functional.
The nature of experiment [15]: growth suppression of beta-catenin-knockout colon cells, dose response, cell-based, HCT116, human colon tumor (AID 1045).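 Further: HCT116 colon tumor cells with beta catenin knocked out; cells exposed to compound for 60 hours.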 The experiment is classed as functional.

The structures appear in SMILES notation. The source made the active and inactive calls. Some results are limits rather than exact numbers.

Sequence of Large T antigen (P03070 whole entry): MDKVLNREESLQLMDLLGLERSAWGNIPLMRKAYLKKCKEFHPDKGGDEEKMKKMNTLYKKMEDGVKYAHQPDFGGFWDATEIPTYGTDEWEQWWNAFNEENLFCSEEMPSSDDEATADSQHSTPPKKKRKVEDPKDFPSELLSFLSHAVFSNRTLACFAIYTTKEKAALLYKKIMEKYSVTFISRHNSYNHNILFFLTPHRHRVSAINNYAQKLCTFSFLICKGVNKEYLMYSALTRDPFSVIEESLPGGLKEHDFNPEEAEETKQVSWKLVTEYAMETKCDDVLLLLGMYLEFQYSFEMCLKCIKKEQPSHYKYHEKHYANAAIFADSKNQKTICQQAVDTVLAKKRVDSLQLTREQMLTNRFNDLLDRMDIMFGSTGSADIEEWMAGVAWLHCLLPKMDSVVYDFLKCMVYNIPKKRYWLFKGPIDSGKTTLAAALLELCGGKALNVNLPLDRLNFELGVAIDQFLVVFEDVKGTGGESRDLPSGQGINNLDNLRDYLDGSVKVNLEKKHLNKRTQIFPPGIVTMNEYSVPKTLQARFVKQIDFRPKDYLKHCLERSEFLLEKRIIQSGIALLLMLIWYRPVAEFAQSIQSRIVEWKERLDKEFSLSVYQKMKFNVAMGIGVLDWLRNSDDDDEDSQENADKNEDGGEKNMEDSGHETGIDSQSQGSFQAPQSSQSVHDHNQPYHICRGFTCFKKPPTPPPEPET
Sequence of Nonstructural protein 1 (Q194T2 whole entry): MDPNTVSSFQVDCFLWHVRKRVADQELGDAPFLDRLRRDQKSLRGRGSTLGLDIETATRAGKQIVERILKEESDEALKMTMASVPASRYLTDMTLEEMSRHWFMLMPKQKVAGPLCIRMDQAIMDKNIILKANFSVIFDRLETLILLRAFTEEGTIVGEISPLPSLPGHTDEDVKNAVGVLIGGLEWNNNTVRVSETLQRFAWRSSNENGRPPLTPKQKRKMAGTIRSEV
Sequence of Induced myeloid leukemia cell differentiation protein Mcl-1 (Q07820 whole entry): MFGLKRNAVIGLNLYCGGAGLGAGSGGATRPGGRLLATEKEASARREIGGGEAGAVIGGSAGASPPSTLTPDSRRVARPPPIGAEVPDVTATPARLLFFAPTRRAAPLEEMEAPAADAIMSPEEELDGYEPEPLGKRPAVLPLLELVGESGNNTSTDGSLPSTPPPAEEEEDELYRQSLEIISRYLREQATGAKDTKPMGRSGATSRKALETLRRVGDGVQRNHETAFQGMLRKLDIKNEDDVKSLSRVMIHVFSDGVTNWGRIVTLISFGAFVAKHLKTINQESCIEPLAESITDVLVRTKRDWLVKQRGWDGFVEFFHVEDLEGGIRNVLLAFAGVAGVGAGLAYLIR

With `CCOc1cccc(=NC2CCCCC2)c2c(C)[nH]c(C)c12`, the IC50 at Nonstructural protein 1 was 68.8 µM (active). Also, the AC50 in experiment [1] is 3.49 µM (active).
In the case of `CCc1nc2ccc(C(=O)NCCN3CCNC3=O)cn2c1N(CC)Cc1cccc(Br)c1`, the AC50 in [2] was 1.18 µM (active); in experiment [3], 1.74 µM (active); in experiment [4] it was 1.85 µM (active); in experiment [5], 3.08 µM (active).
As to `COc1ccc(N=C(S)Nc2cc(C)ccn2)c(OC)c1`, the concentration for a half-maximal effect (EC50) in the experiment with H4 was > 120 µM (not active); in experiment [6], < 0.1 µM (inconclusive); in experiment [7], 0.256 µM (active); in experiment [8], 0.393 µM (active); in [9], > 12 µM (not active).
Regarding `CN(C)c1ccc(Nc2nc(N)c([N+](=O)[O-])c(N3CCOCC3)n2)cc1`, the concentration for half-maximal inhibition (IC50) in experiment [10] was 0.8 µM (active); at Large T antigen, 3.84 µM (active).
Consider `CN(C[C@@H](CC1CCCCC1)N(C[C@H](Cc1ccccc1)N(CCc1ccccc1)N=O)N=O)N=O`, for which the AC50 is 5.14 µM (active) in experiment [2], 8.38 µM (active) in [3], 6.56 µM (active) in experiment [4] and 42.9 µM (active) in experiment [5].
For `COc1ccc(CN2CCC(C)(Oc3ccc4c(c3)OCO4)C2)c2ccccc12` (stereo unspecified), in that order: 6.46 µM (active), 10.1 µM (active), 12.2 µM (active) and 10.1 µM (active).
For the compound `O=C(N/N=C/c1ccc2c(c1)OCO2)c1ccc(Br)o1`, the concentration giving a half-maximal response (EC50) is 18.6 µM (inconclusive) in the experiment with H4; < 0.1 µM (inconclusive) in experiment [6]; 0.371 µM (active) in experiment [7]; 0.855 µM (active) in [8]; 0.433 µM (active) in [9].
Consider `COc1ccc(N2CCc3c(C)nc4c(OC)cc(OC)cc4c32)cc1`, for which the concentration giving a half-maximal response (EC50) in [11] was 36.5 µM (active); in [12] it was 0.97 µM (active). Moreover, the half-maximal activity concentration (AC50) in experiment [1] was 3.96 µM (active).
For `CCS(=O)(=O)c1nc(S(=O)(=O)c2ccc(C)cc2)c(N2CC(C)OC(C)C2)s1` (stereo unspecified), the EC50 was > 120 µM (not active) in the experiment on H4; < 0.1 µM (active) in experiment [6]; 0.81 µM (active) in experiment [7]; > 12 µM (not active) in experiment [8]; > 12 µM (not active) in experiment [9].
With `O=C(NCc1ccccc1)c1cnc2cc3c(cc2c1O)OCCO3`, the EC50 in the experiment with H4 is 0.282 µM (active); in experiment [6], < 0.1 µM (active); in experiment [7], 0.2 µM (active); in experiment [8] it was 0.421 µM (active); in experiment [9], 0.334 µM (active).
Take `O=C(/C=C/c1cn(-c2ccccc2)nc1-c1ccc2c(c1)OCCO2)NCCCN1CCOCC1`: in experiment [1], the concentration at half-maximal activity (AC50) is 16.1 µM (active). Besides, in experiment [13], the IC50 is 20 µM (active).
On to `Nc1c(S(=O)(=O)c2cccs2)c2nc3ccccc3nc2n1CCc1ccccc1`, for which the figures for the AC50 in [2], in [3] and in [4] were 9.23 µM (active), 9.26 µM (active) and 12.7 µM (active), respectively. The EC50 in experiment [14] was 27 µM (active); in experiment [15], 30 µM (active).
